Experimental data: patent US20230303817A1, “BLENDED POLYVINYL ALCOHOL DRUG DELIVERY SYSTEMS” (The University of British Columbia, priority 2020, published 2023)
≈ marks a conversion by molar mass, not a printed value.

What was measured:
[1] = cited from earlier work
[2] = Release of other therapeutic agents from blended PVA cast films or electrospun membranes; type: physicochemical; settings: for drug release: 1% gentamicin
Experimental: Films or electrospun membrane were manufactured as described above containing either docetaxel, doxycycline, gentamicin or bovine serum albumin (BSA; as a protein model for any “biological” based drug such as an antibody). […] Gentamicin was analyzed using a fluorescence tag assay using Fluoraldehyde™ (Thermo Fisher) and BSA protein release was assayed using a BCA protein analysis kit.

[3] = Film swelling and degradation studies in deionized water (cast films and electrospun membranes); type: physicochemical; settings: cast films with 48% and 46% PVA 99% content (rest PVA 88%)
Experimental: PVA films or electrospun membranes were prepared as described above. These films were then stored for one week in the dark before use. Small sections of films (approximate diameters of 2 cm) were then placed on moist 0.2 µm filter discs (Millipore, Billerica, MA, USA) and weighed. The films and filters were covered with a thin layer of deionized water and left for appropriate times. After set time points the filter discs and adherent PVA-silver gel were moved to a Millipore vacuum apparatus and all excess water was removed from the filter over approximately 15 seconds. The combined PVA gel and filter were reweighed and recovered with a fresh layer of excess water. The weight gain (swelling) and weight loss (dissolution) were then calculated as a percentage of the original dry film weight.

MRSA strain USA300 = assay: Antimicrobial efficacy of silver-loaded PVA films and membranes; type: cell-based, S. aureus; settings: for bacterial death: 1% w/w silver, 20 mg in 10 mL, up to 48 hours; for Anti-bacterial (MRSA) activity: 1% w/w silver salt (FIG. 11)
Experimental: In order to illustrate the antimicrobial activity of PVA-silver formulations, all cast films and electrospun membranes were weighed at 20 mg +/- 0.5 mg. The methicillin resistant strain of S. aureus (MRSA strain USA300) was cultured overnight from freezer stocks (20 µL bacterial sample into 20 mL Luria Bertani (LB) broth), followed by a second sub-culture (200 µL in 20 mL LB broth) until an optical density of -0.3-0.5 at λ=600 nm was reached (measured using an Eppendorf BioPhotometer (Eppendorf, Mississauga, ON, Canada), at which point bacteria were used as outlined below.

[4] = Silver release studies (inductively coupled plasma analysis of release media); type: physicochemical; settings: electrospun membranes 10:90 PVA99%:PVA88%, 1% w/w silver salt
Experimental: Films or electrospun membranes containing silver were placed in deionized water and the media sampled at regular intervals for silver analysis by Inductively coupled plasma analysis. Silver calibration standards were run every 10 samples. The instrument held reproducible standard curves over 100 sequential silver analysis with detection limits approximating 10 ng/ml. Each release study was run in triplicate for at least two weeks and the results plotted as the calculated percent silver released as a function of time.

[5] = electrospun membranes 10:90 PVA99%:PVA88%

For `C[C@H]1c2cccc(O)c2C(=O)C2=C(O)[C@]3(O)C(=O)C(C(N)=O)=C(O)[C@@H](N(C)C)[C@@H]3[C@@H](O)[C@@H]21` [doxycycline], the water solubility [1] is listed as 500 µg/mL (≈ 1130 µM).

For `CC(=O)O[C@@]12CO[C@@H]1C[C@H](O)[C@@]1(C)C(=O)[C@H](O)C3=C(C)[C@@H](OC(=O)[C@H](O)[C@@H](NC(=O)OC(C)(C)C)c4ccccc4)C[C@@](O)([C@@H](OC(=O)c4ccccc4)[C@H]21)C3(C)C` [docetaxel], the “drug release, % of total drug” value ([2]; electrospun membranes 35:65, 45:55 or 55:45 PVA 99%:88%, 1% docetaxel, over 7 days) was 5-8%.

For `O=S(=O)([O-])[O-].[Ag+].[Ag+]` [silver sulphate], the “swelling at 6 hours” value [3] was > 0%, the bacterial death (MRSA strain USA300; cast films 40:60 PVA99%:PVA88%) was 100% and the “Anti-bacterial (MRSA) activity” value (MRSA strain USA300; [5]) was “killed all MRSA bacteria”. For the same compound, the bacterial death (MRSA strain USA300; [5]) was 100%, the “Anti-bacterial (MRSA) activity” value (MRSA strain USA300; films 40:60 PVA99%:PVA88%) was “killed all MRSA bacteria” and the “silver release by day 11” value [4] was 75%.

For gentamicin, the drug release ([2]; cast films 35:65, 45:55 or 55:45 PVA 99%:88%, over 7 days) was 50-70% and the drug release ([2]; electrospun membranes 35:65, 45:55 or 55:45 PVA 99%:88%, over 6 days) was 40%.
